{"source": "patent US11730712B2", "about": "“Functionalized long-chain hydrocarbon mono- and di-carboxylic acids and derivatives thereof, and their use for the prevention or treatment of disease” (ESPERVITA THERAPEUTICS, INC., priority 2021, dated 2023)", "key": {"Aurora A": {"molecular_target": "T1, Aurora A (Homo sapiens, UniProt O14965)", "T1 sequence (O14965 1-403)": "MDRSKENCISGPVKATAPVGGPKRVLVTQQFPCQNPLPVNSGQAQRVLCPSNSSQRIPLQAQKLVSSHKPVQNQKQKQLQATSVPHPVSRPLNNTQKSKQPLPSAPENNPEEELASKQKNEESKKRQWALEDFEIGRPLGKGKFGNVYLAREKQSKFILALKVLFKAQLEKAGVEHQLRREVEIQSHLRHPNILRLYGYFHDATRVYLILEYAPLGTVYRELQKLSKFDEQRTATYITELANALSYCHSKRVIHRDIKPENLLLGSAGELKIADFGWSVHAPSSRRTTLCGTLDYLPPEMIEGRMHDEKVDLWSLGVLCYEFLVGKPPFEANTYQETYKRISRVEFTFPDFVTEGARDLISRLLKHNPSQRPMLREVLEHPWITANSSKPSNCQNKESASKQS", "assay": "Kinase assay, wild type kinases", "assay_type": "biochemical", "settings": "compound 10 μM, 10 μM ATP, duplicate (Data 1, Data 2), >100 activation, <100 inhibition; for remaining activity at 10 µM: read-out: % Enzyme Activity (relative to DMSO controls), Aurora A"}, "BMX/ETK": {"molecular_target": "T2, BMX/ETK (Homo sapiens, UniProt P51813)", "T2 sequence (P51813 1-675)": "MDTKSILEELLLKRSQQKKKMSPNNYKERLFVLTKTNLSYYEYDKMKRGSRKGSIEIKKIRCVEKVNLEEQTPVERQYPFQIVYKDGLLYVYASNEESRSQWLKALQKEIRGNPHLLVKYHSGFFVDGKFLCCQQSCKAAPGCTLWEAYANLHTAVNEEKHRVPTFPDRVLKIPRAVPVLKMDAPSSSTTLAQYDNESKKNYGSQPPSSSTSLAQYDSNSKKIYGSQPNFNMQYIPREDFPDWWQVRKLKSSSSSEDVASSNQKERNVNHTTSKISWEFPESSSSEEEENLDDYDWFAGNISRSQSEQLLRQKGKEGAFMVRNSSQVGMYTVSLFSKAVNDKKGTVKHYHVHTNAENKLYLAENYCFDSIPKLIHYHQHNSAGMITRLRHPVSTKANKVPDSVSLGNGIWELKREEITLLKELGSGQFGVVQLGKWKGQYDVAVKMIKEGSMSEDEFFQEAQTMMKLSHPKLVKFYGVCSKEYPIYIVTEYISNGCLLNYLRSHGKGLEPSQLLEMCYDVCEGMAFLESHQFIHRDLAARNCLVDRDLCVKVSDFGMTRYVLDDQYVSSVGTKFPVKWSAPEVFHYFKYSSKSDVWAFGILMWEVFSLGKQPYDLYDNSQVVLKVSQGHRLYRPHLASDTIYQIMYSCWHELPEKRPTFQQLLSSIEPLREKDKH", "assay": "Kinase assay, wild type kinases", "assay_type": "biochemical", "settings": "compound 10 μM, 10 μM ATP, duplicate (Data 1, Data 2), >100 activation, <100 inhibition; for remaining activity at 10 µM: read-out: % Enzyme Activity (relative to DMSO controls), BMX/ETK"}, "c-Kit": {"molecular_target": "c-Kit (Homo sapiens, UniProt P10721)", "sequence (P10721 26-976)": "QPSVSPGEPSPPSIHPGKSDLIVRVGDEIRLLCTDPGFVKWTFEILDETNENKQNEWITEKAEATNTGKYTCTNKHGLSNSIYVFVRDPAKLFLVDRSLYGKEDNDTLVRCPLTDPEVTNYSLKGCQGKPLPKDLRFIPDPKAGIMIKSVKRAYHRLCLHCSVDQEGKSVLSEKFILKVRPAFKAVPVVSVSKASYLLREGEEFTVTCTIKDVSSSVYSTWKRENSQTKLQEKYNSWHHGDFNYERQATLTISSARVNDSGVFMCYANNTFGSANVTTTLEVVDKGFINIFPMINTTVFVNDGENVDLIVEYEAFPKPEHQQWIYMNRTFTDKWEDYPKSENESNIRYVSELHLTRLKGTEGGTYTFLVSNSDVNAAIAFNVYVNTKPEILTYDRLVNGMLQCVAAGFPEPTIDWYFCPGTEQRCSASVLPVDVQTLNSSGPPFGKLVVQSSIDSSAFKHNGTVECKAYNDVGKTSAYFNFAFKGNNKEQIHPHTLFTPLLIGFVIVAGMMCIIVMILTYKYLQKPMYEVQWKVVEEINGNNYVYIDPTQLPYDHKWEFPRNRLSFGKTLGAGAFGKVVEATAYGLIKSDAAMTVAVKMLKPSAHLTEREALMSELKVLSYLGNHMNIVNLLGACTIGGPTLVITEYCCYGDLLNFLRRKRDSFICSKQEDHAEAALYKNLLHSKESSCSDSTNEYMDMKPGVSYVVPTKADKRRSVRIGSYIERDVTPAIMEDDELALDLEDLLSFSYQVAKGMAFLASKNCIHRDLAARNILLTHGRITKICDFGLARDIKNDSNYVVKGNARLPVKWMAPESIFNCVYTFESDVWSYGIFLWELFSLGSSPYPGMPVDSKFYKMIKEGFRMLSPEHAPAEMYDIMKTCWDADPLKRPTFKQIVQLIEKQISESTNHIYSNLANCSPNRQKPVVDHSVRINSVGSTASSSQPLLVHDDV", "assay": "Kinase assay, wild type kinases", "assay_type": "biochemical", "settings": "compound 10 μM, 10 μM ATP, duplicate (Data 1, Data 2), >100 activation, <100 inhibition; for remaining activity at 10 µM: read-out: % Enzyme Activity (relative to DMSO controls), c-Kit"}, "CAMK2g": {"molecular_target": "CAMK2g (Homo sapiens, UniProt Q13555)", "assay": "Kinase assay, wild type kinases", "assay_type": "biochemical", "settings": "compound 10 μM, 10 μM ATP, duplicate (Data 1, Data 2), >100 activation, <100 inhibition; for remaining activity at 10 µM: read-out: % Enzyme Activity (relative to DMSO controls), CAMK2g"}, "MLCK/MYLK": {"molecular_target": "MLCK/MYLK (Homo sapiens, UniProt Q15746)", "assay": "Kinase assay, wild type kinases", "assay_type": "biochemical", "settings": "compound 10 μM, 10 μM ATP, duplicate (Data 1, Data 2), >100 activation, <100 inhibition; for remaining activity at 10 µM: read-out: % Enzyme Activity (relative to DMSO controls), MLCK/MYLK"}, "[1]": {"tested_on": "Hep3B human hepatocarcinoma cells", "assay": "Colony formation assay (clonogenic survival, 7 days)", "assay_type": "cell-based", "settings": "168 h, read-out: Hep3B (IC50), anti-clonogenic activity", "protocol": "(§1) Colony formation assay. Hep3B and Hepa1-6 cells were seeded in 12-well plates at a cell density of 1000 and 500 cells/well, respectively. On day 2, media in each well was aspirated and replaced with 1000 μl of fresh complete media and cells were treated with or without the respective drugs in an increasing concentration followed by the incubation of the cells for 7 days in an incubator.\n(§2) On day 9, the media in each well was aspirated and cells were fixed with 10% formalin (500 μl) for 10 minutes at room temperature. Formalin was aspirated and the plates were washed with 1×PBS and stained with crystal violet for another 10 minutes. After 10 minutes of staining, crystal violet was […] the cells, rinsed with tap water for three times and the plates were dried overnight. Next day, colonies (>50 cells) were counted and analyzed.\n(§3) Statistical tests. Results were indicated as mean±standard deviation (SD). All line graphs were prepared using Graph Pad Prism 8 software. Proliferation and clonogenics IC50 values were calculated using a non-linear regression model in Graph pad Prism 8."}, "[2]": {"tested_on": "Hepa1-6 murine hepatoma cells", "assay": "Colony formation assay (clonogenic survival, 7 days)", "assay_type": "cell-based", "settings": "Mus musculus, Hepa1-6, 168 h, read-out: Hepa1-6 (IC50), anti-clonogenic activity", "protocol": "as §1, §2, §3"}}, "note": "Values joined by “and” are separate entries in the source; they are usually repeats but may differ in a detail not shown here. Equal entries are not always repeated."}
{"smiles": "CC(C)(CCCCc1cccc(CCCCC(C)(C)C(=O)SCCNC(=O)CCNC(=O)[C@H](O)C(C)(C)COP(=O)(O)OP(=O)(O)OC[C@H]2O[C@@H](n3cnc4c(N)ncnc43)[C@H](O)[C@@H]2OP(=O)(O)O)c1)C(=O)O", "note": "[Compound I-32-CoA, 6-[3-(5-Carboxy-5-methylhexyl)-phenyl]-2,2-dimethylhexanoic acid Coenzyme A Ester]", "values": [{"measurement": "% Enzyme Activity (relative to DMSO controls), Aurora A", "setting": "Aurora A", "result": "13.04% and 11.95%"}, {"measurement": "% Enzyme Activity (relative to DMSO controls), BMX/ETK", "setting": "BMX/ETK", "result": "49.54% and 43.87%"}, {"measurement": "% Enzyme Activity (relative to DMSO controls), c-Kit", "setting": "c-Kit", "result": "49.53% and 49.21%"}, {"measurement": "% Enzyme Activity (relative to DMSO controls), CAMK2g", "setting": "CAMK2g", "result": "35.05% and 34.20%"}, {"measurement": "% Enzyme Activity (relative to DMSO controls), MLCK/MYLK", "setting": "MLCK/MYLK", "result": "3.21% and 1.59%"}]}
{"smiles": "CC(C)(CCCCc1ccc(CCCCC(C)(C)C(=O)SCCNC(=O)CCNC(=O)[C@H](O)C(C)(C)COP(=O)(O)OP(=O)(O)OC[C@H]2O[C@@H](n3cnc4c(N)ncnc43)[C@H](O)[C@@H]2OP(=O)(O)O)cc1)C(=O)O", "note": "[Compound I-1-CoA, 6-[4-(5-carboxy-5-methylhexyl)-phenyl]-2,2-dimethylhexanoic acid Coenzyme A ester]", "values": [{"measurement": "% Enzyme Activity (relative to DMSO controls), Aurora A", "setting": "Aurora A", "result": "12.44% and 12.42%"}, {"measurement": "% Enzyme Activity (relative to DMSO controls), BMX/ETK", "setting": "BMX/ETK", "result": "49.55% and 47.76%"}, {"measurement": "% Enzyme Activity (relative to DMSO controls), c-Kit", "setting": "c-Kit", "result": "73.56% and 73.24%"}, {"measurement": "% Enzyme Activity (relative to DMSO controls), CAMK2g", "setting": "CAMK2g", "result": "53.91% and 53.05%"}, {"measurement": "% Enzyme Activity (relative to DMSO controls), MLCK/MYLK", "setting": "MLCK/MYLK", "result": "2.06% and −0.71%"}]}
{"smiles": "CC(C)(CCCCc1ccc(CCCCC(C)(C)C(=O)O)cc1)C(=O)O", "note": "[Compound I-1, 6-[4-(5-carboxy-5-methylhexyl)-phenyl]-2,2-dimethylhexanoic acid]", "values": [{"measurement": "remaining activity at 10 µM", "setting": "Aurora A", "result": 89.1, "unit": "%"}, {"measurement": "remaining activity at 10 µM", "setting": "BMX/ETK", "result": 55, "unit": "%"}, {"measurement": "remaining activity at 10 µM", "setting": "c-Kit", "result": 85.5, "unit": "%"}, {"measurement": "remaining activity at 10 µM", "setting": "CAMK2g", "result": 60.6, "unit": "%"}, {"measurement": "remaining activity at 10 µM", "setting": "MLCK/MYLK", "result": 110, "unit": "%"}, {"measurement": "IC50", "setting": "[1]", "result": 50.7, "unit": "µM"}, {"measurement": "IC50", "setting": "[2]", "result": 67.6, "unit": "µM"}]}
{"smiles": "CC(C)(CCCCc1cccc(CCCCC(C)(C)C(=O)O)c1)C(=O)O", "note": "[Compound I-32, 6-[3-(5-carboxy-5-methylhexyl)-phenyl]-2,2-dimethylhexanoic acid]", "values": [{"measurement": "remaining activity at 10 µM", "setting": "Aurora A", "result": 94.9, "unit": "%"}, {"measurement": "remaining activity at 10 µM", "setting": "BMX/ETK", "result": 53.7, "unit": "%"}, {"measurement": "remaining activity at 10 µM", "setting": "c-Kit", "result": 73.6, "unit": "%"}, {"measurement": "remaining activity at 10 µM", "setting": "CAMK2g", "result": 73.2, "unit": "%"}, {"measurement": "remaining activity at 10 µM", "setting": "MLCK/MYLK", "result": 106, "unit": "%"}, {"measurement": "IC50", "setting": "[1]", "result": 40.8, "unit": "µM"}, {"measurement": "IC50", "setting": "[2]", "result": 58.9, "unit": "µM"}]}
